Measurements reported in the Deep4Chem optical property database.
Values belong to the compound of their own block, whether it stands above or below them.

Experiment: solvent given as SMILES

emission maximum (in ClCCl): 418 nm
Structure (SMILES): CCOC(=O)c1c(-c2c(Cl)c3cc(C)ccc3oc2=O)nn(-c2cccc(C)c2)c1C(=O)OCC

Structure (SMILES): Cc1ccc(-c2ccc(/C=C/c3cccn3C)cn2)nc1
emission maximum (in C1COCCO1): 464 nm
emission maximum (in CC#N): 488 nm
emission maximum (in CCCCCC): 436 nm
emission maximum (in CCO): 501 nm
emission maximum (in CN(C)C=O): 493 nm
emission maximum (in CO): 507 nm
emission maximum (in CS(C)=O): 500 nm
emission maximum (in Cc1ccccc1): 459 nm
emission maximum (in ClC(Cl)Cl): 476 nm
emission maximum (in c1ccccc1): 464 nm

emission maximum (in CC#N): 593 nm
Structure (SMILES): COC(=O)/C=C/c1sc(-c2ccc(N(C)C)cc2)c(-c2cccnc2)c1N

emission maximum (in C1CCCCC1): 625 nm
emission maximum (in CCOC(C)=O): 626.5 nm
emission maximum (in CO): 625 nm
Structure (SMILES): Cc1ccccc1C1=C2C=c3c(oc4c3ccc3ccccc34)=[N+]2[B-](F)(F)n2c1cc1c3ccc4ccccc4c3oc12

emission maximum (in CC#N): 542 nm
emission maximum (in CCO): 603 nm
emission maximum (in CO): 614 nm
emission maximum (in ClCCl): 530 nm
emission maximum (in O): 637 nm
Structure (SMILES): CCCC(=O)c1c2c(c(C(=O)CCC)c3c1OC(CC(=O)OC)(C(=O)O)O3)OCO2

emission maximum (in C1CCOC1): 418 nm
emission maximum (in C1COCCO1): 417 nm
emission maximum (in CC#N): 417 nm
emission maximum (in CC(C)O): 423 nm
emission maximum (in CCO): 427 nm
emission maximum (in CCOC(C)=O): 416 nm
emission maximum (in CN(C)C=O): 422 nm
emission maximum (in CO): 431 nm
emission maximum (in CS(C)=O): 424 nm
emission maximum (in O): 448 nm
Structure (SMILES): NS(=O)(=O)c1ccc(N2N=C(c3ccc(O)cc3)CC2c2ccc(Cl)cc2)cc1 (configuration not stated)

emission maximum (in C1CCOC1): 533 nm
emission maximum (in ClC(Cl)Cl): 592 nm
emission maximum (in ClCCl): 635 nm
Structure (SMILES): COc1ccc2cc(C#Cc3ccc([N+](=O)[O-])cc3)ccc2c1

Structure (SMILES): Cc1cccc2c3ccccc3n(-c3ccc(-c4c(-c5ccccc5)c(C#N)c(C#N)c(-c5ccccc5)c4-c4ccc(-n5c6ccccc6c6cccc(C)c65)cc4)cc3)c12
emission maximum (in Cc1ccccc1): 440 nm
emission maximum (in O=P(c1ccccc1)(c1ccccc1)c1ccc2oc3ccc(P(=O)(c4ccccc4)c4ccccc4)cc3c2c1): 450 nm

emission maximum (in CC1CCCO1): 489 nm
Structure (SMILES): Cn1c2nc(=O)[nH]c(=O)c-2nc2ccccc21

emission maximum (in CCO): 641 nm
emission maximum (in ClC(Cl)Cl): 644 nm
emission maximum (in ClCCl): 644 nm
Structure (SMILES): CCN(CC)c1ccc2c(-c3ccccc3C(=O)O)c3c([o+]c2c1)/C(=C/Nc1ccccc1)CCC3

emission maximum (in C1CCCCC1): 385 nm
emission maximum (in CC#N): 375 nm
emission maximum (in CO): 400 nm
emission maximum (in ClC(Cl)Cl): 375 nm
Structure (SMILES): CC1(C)CC(/N=C/c2ccc3ccc4cccc5ccc2c3c45)CC(C)(C)N1[O]

emission maximum (in ClC(Cl)Cl): 426 nm
Structure (SMILES): COc1ccc2c(C#N)cc3ccc4cc(C#N)c5ccc(OC)cc5c4c3c2c1

emission maximum (in C1CCCCC1): 340 nm
emission maximum (in ClCCl): 356 nm
Structure (SMILES): c1ccc2c(c1)Cc1cc3c(cc1-2)Cc1ccccc1-3

emission maximum (in CC#N): 533 nm
Structure (SMILES): Cc1cc2nc3c(=O)[nH]c(=O)nc-3n(C)c2cc1C

emission maximum (in CC#N): 490 nm
Structure (SMILES): c1ccc(-n2c(-c3ccc(-n4c5ccccc5c5ccccc54)cc3)nc3nccnc32)cc1

Structure (SMILES): O=Cc1ccc(-c2ccc(C3=CCC(c4ccccc4)CC3)s2)s1 (configuration not stated)
emission maximum (in C1CCOC1): 446 nm
emission maximum (in CC#N): 483 nm
emission maximum (in CCCCCC): 443 nm
emission maximum (in CCO): 498 nm
emission maximum (in OCCOCCO): 506 nm
emission maximum (in c1ccncc1): 481 nm

Structure (SMILES): CC(C)(C)c1ccc2c(c1)c1cc(C(C)(C)C)ccc1n2-c1ccc(S(=O)(=O)c2ccc(S(=O)(=O)c3ccc(-n4c5ccc(C(C)(C)C)cc5c5cc(C(C)(C)C)ccc54)cc3)cc2)cc1
emission maximum (in Cc1ccccc1): 446 nm

emission maximum (in C1CCCCC1): 377 nm
Structure (SMILES): c1ccc(-c2ccc(-c3ccc4c(c3)CCO4)cc2)cc1

emission maximum (in C1CCOC1): 382 nm
emission maximum (in C1COCCO1): 378 nm
emission maximum (in CC#N): 388 nm
emission maximum (in CC(C)O): 418 nm
emission maximum (in CCCCO): 417 nm
emission maximum (in CCCO): 416 nm
emission maximum (in CCOC(C)=O): 378 nm
emission maximum (in CN(C)C=O): 408 nm
emission maximum (in CO): 421 nm
emission maximum (in CS(C)=O): 402 nm
emission maximum (in ClC(Cl)Cl): 380 nm
emission maximum (in O): 435 nm
Structure (SMILES): Cc1cc(=O)c2ccc(N)cc2o1

emission maximum (in C1CCCCC1): 485 nm
emission maximum (in C1COCCO1): 505 nm
emission maximum (in CC#N): 525 nm
emission maximum (in CN(C)C=O): 540 nm
emission maximum (in ClC(Cl)Cl): 510 nm
Structure (SMILES): N#Cc1c2nc3ccccn3c2nc2nc3ccccn3c12

emission maximum (in CO): 620 nm
emission maximum (in O): 621 nm
Structure (SMILES): CN(C)c1ccc2c(c1)C(C)(C)C1=CC(=[N+](C)C)C=CC1=C2

emission maximum (in ClCCl): 467 nm
Structure (SMILES): CCCCCCOc1cc(C=O)c(OCCCCCC)cc1C=O

emission maximum (in ClCCl): 568 nm
Structure (SMILES): c1cc2c3c(c1)ccc1[n+]3[B-]3(Oc4cccc5ccc6[n+](c45)[B-](O2)(O3)n2c-6cc3c4ccccc4c4ccccc4c32)n2c-1cc1c3ccccc3c3ccccc3c12

emission maximum (in ClC(Cl)Cl): 423 nm
Structure (SMILES): CCC(CC)n1c2ccccc2c2cc3c(cc21)c1ccccc1n3C(CC)CC

emission maximum (in CC#N): 372 nm
Structure (SMILES): C[n+]1ccc(/C=C/c2cc[n+](C)cc2)cc1

Structure (SMILES): CCOC(=O)/C(C#N)=C\c1ccc2c(c1)c1ccccc1n2-c1ccc(C)cc1
emission maximum (in C1CCOC1): 461 nm
emission maximum (in CC#N): 508 nm
emission maximum (in CC(C)=O): 503 nm
emission maximum (in CCOC(C)=O): 460 nm
emission maximum (in CO): 495 nm
emission maximum (in CS(C)=O): 503 nm
emission maximum (in Cc1ccccc1): 444 nm
emission maximum (in ClC(Cl)Cl): 482 nm

emission maximum (in ClCCl): 450 nm
Structure (SMILES): CC(C)(C)c1ccc(-c2cc(-c3ccc(-c4cc(-c5ccc(C(C)(C)C)cc5)c(C(=O)NCc5cccs5)s4)s3)sc2C(=O)NCc2cccs2)cc1

emission maximum (in CC1CCCO1): 413 nm
Structure (SMILES): O=S1(=O)c2ccc(-c3ccc4c(c3)c3ccccc3n4-c3ccccc3)cc2C2(c3cc(-c4ccc5c(c4)c4ccccc4n5-c4ccccc4)ccc31)c1cc(-c3ccc4c(c3)c3ccccc3n4-c3ccccc3)ccc1S(=O)(=O)c1ccc(-c3ccc4c(c3)c3ccccc3n4-c3ccccc3)cc12

emission maximum (in ClCCl): 551 nm
emission maximum (in c1ccccc1): 499 nm
Structure (SMILES): CCCCN(CCCC)c1ccc2c(c1)C#CC#Cc1cc(N(CCCC)CCCC)ccc1C#Cc1cc(c3cc1C#Cc1ccc(C(F)(F)F)cc1C#CC#Cc1cc(C(F)(F)F)ccc1C#C3)C#C2

Structure (SMILES): CCn1c2ccccc2c2cc(C#Cc3cc(C#Cc4ccc5c(c4)c4ccccc4n5CC)nc(S(C)(=O)=O)n3)ccc21
emission maximum (in C1CCOC1): 496 nm
emission maximum (in CCOC(C)=O): 491 nm
emission maximum (in CN(C)C=O): 550 nm
emission maximum (in Cc1ccccc1): 447 nm
emission maximum (in ClCCl): 510 nm

Structure (SMILES): COc1ccc(-c2c3ccccc3c3n2[B-](F)(F)[N+]2=Cc4c5ccccc5c(-c5ccc(OC)cc5)n4[B-](F)(F)[N+]2=C3)cc1
emission maximum (in CC#N): 606 nm
emission maximum (in CCCCCC): 607 nm
emission maximum (in CN(C)C=O): 613 nm
emission maximum (in Cc1ccccc1): 616 nm
emission maximum (in ClCCl): 614 nm

emission maximum (in ClCCl): 705 nm
Structure (SMILES): CCOC(=O)COc1ccc(/C=C/C2=[N+]3C(=Cc4c5ccccc5c(-c5[nH]c(C)cc5C)n4[B-]3(F)F)C(C)=C2)cc1

Structure (SMILES): N#CC(C#N)=C(/C=C/c1cn(-c2ccccc2)nc1-c1ccccc1)c1ccccc1
emission maximum (in C1CCOC1): 459 nm
emission maximum (in C1COCCO1): 461 nm
emission maximum (in CCO): 497 nm
emission maximum (in CCOC(C)=O): 487 nm
emission maximum (in CN(C)C=O): 504 nm
emission maximum (in CO): 496 nm
emission maximum (in CS(C)=O): 509 nm
emission maximum (in Cc1ccccc1): 460 nm
emission maximum (in ClC(Cl)Cl): 488 nm
emission maximum (in ClCCl): 489 nm

Structure (SMILES): O=C1CCCC2=C1CC1=C(CCCC1=O)N2NC(=O)c1ccc(O)cc1
emission maximum (in CC#N): 434 nm
emission maximum (in CC(C)=O): 432 nm
emission maximum (in CCCCCO): 447 nm
emission maximum (in CO): 449 nm
emission maximum (in ClC(Cl)Cl): 444 nm
emission maximum (in ClCCl): 436 nm

emission maximum (in C1CCOC1): 605 nm
Structure (SMILES): CCCCCOc1cc2oc(=O)c3c4ccc(N(c5ccc(C)cc5)c5ccc(C)cc5)cc4c4ccc5cccc6c(c1)c2c3c4c56

emission maximum (in ClC(Cl)Cl): 670 nm
Structure (SMILES): CCCCCCCCc1ccc(-c2c3cc(-c4cc(CCCCCCCC)c(-c5ccc(-c6sc(/C=C7\SC(=S)N(CC)C7=O)cc6CCCCCCCC)s5)s4)sc3c(-c3ccc(CCCCCCCC)s3)c3cc(-c4cc(CCCCCCCC)c(-c5ccc(-c6sc(/C=C7\SC(=S)N(CC)C7=O)cc6CCCCCCCC)s5)s4)sc23)s1

emission maximum (in ClC(Cl)Cl): 814 nm
Structure (SMILES): COc1ccc(C2=c3sc(-c4ccc(OC)cc4)cc3=[N+]3C2=Nc2c(-c4ccc(OC)cc4)c4sc(-c5ccc(OC)cc5)cc4n2[B-]3(F)F)cc1

emission maximum (in O): 404 nm
Structure (SMILES): c1ccc2c[n+]3ccccc3cc2c1

emission maximum (in ClCCl): 663 nm
Structure (SMILES): CC(C)[Si](C#Cc1c2cc3ccccc3cc2c(C#Cc2ccc(Br)cc2)c2cc3ccccc3cc12)(C(C)C)C(C)C

emission maximum (in CC#N): 455 nm
emission maximum (in CO): 453 nm
emission maximum (in O): 466 nm
Structure (SMILES): CSc1ccc2c(c1)N(CCCN1CCN(C)CN1C)c1ccccc1S2

emission maximum (in ClCCl): 631 nm
Structure (SMILES): CC1=CC(C)=[N+]2C1=Cc1c3ccccc3c(-c3[nH]c(C)cc3C)n1[B-]2(F)F

emission maximum (in CCO): 550 nm
emission maximum (in ClCCl): 553 nm
emission maximum (in O): 564 nm
Structure (SMILES): O=Cc1ccc(-c2ccc(O)c(-c3nc4ccccc4s3)c2)o1

emission maximum (in C1CCCCC1): 645 nm
emission maximum (in CCOC(C)=O): 680 nm
Structure (SMILES): CC1=[N+]2C(=C(c3ccc(N(c4ccccc4)c4ccccc4)cc3)c3ccc(C)n3[B-]2(F)F)C=C1c1cc2n(c1)[B-](F)(F)[N+]1=CC=CC1=C2c1c(C)cc(C)cc1C

Structure (SMILES): CCC1=C(C)C2=Cc3c4ccccc4c4n3[B-](c3ccc(OC)cc3)(Oc3ccccc3-4)[N+]2=C1C (configuration not stated)
emission maximum (in CC#N): 634 nm
emission maximum (in CCCCCC): 635 nm
emission maximum (in Cc1ccccc1): 641 nm
emission maximum (in ClCCl): 639 nm

emission maximum (in C1CCOC1): 361.1 nm
Structure (SMILES): CCCCCCCCCn1c(-c2cc(-c3nc4ccccc4n3CCCCCCCCC)cc(-c3nc4ccccc4n3CCCCCCCCC)c2)nc2ccccc21

emission maximum (in CC#N): 551 nm
Structure (SMILES): Cc1ccc(-c2ccc(/C=C/c3ccc([N+](=O)[O-])cc3)cn2)nc1

Structure (SMILES): CCCCC1=Cc2c3ccc4cccc5ccc(c6cc(-c7ccc(N(c8ccccc8)c8ccccc8)cc7)n(c26)P1(=O)c1ccccc1)c3c45 (configuration not stated)
emission maximum (in C1CCCCC1): 502 nm
emission maximum (in C1CCOC1): 541 nm
emission maximum (in C1COCCO1): 526 nm
emission maximum (in CC#N): 572 nm
emission maximum (in CC(C)=O): 560 nm
emission maximum (in CO): 563 nm
emission maximum (in Cc1ccccc1): 518 nm
emission maximum (in ClC(Cl)Cl): 537 nm
emission maximum (in ClCCl): 551 nm
